Literature values as cited in patent US7479387B2, “Compositions and methods for the synthesis and subsequent modification of uridine-5′-diphosphosulfoquinovose (UDP-SQ)” (Michigan State University, priority 2000, dated 2009).

Legend:
[1] = target: T1, Human Immunodeficiency Virus Reverse Transcriptase 1 (HIV-RT1) (Human immunodeficiency virus type 1 group M subtype B, UniProt P03366); conditions: background statement, Ohta et al. 1998
T1 construct: Human Immunodeficiency Virus Reverse Transcriptase 1 (HIV-RT1)

tumor promotion = conditions: background statement, Shirahashi et al. 1993
[2] = tested on: mammalian DNA polymerases; conditions: background statement, Ohta et al. 1998

Question: Which “inhibition of HIV-RT1” value [1] does the source give for “6-sulfo-α-D-quinovosyl diacyglycerol [SQDG]” here?
Answer: potent inhibitor

Question: And the anti-tumor promoting properties (tumor promotion)?
Answer: anti-tumor promoting properties

Question: And the “inhibition of several mammalian DNA polymerases” value [2]?
Answer: potent inhibitor
